Experimental data published in PubChem BioAssay (NCI).
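Assay format: 96-well plates, 48-hour exposure. TGI is the concentration that stops growth completely.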

Tests used:
Assay in all cases: NCI-60 cell line screen, 48 h
SW-620 colon = system: SW-620 colon
NCI-H23 lung = system: NCI-H23 lung
SK-MEL-28 melanoma = system: SK-MEL-28 melanoma
786-0 renal = system: 786-0 renal
NCI-H460 lung = system: NCI-H460 lung
SK-MEL-5 melanoma = system: SK-MEL-5 melanoma
DU-145 prostate = system: DU-145 prostate
HCT-116 colon = system: HCT-116 colon
PC-3 prostate = system: PC-3 prostate
HT29 colon = system: HT29 colon
M14 melanoma = system: M14 melanoma
OVCAR-8 ovarian = system: OVCAR-8 ovarian
HOP-62 NSCLC = system: HOP-62 NSCLC
SF-295 CNS = system: SF-295 CNS
EKVX NSCLC = system: EKVX NSCLC
NCI/ADR-RES ovarian = system: NCI/ADR-RES ovarian
T-47D breast = system: T-47D breast
HCT-15 colon = system: HCT-15 colon
UACC-62 melanoma = system: UACC-62 melanoma
OVCAR-3 ovarian = system: OVCAR-3 ovarian
U251 CNS = system: U251 CNS
HL-60(TB) leukemia = system: HL-60(TB) leukemia
MDA-N = system: MDA-N
HS 578T breast = system: HS 578T breast
SNB-19 CNS = system: SNB-19 CNS
SN12C renal = system: SN12C renal
A498 renal = system: A498 renal
COLO 205 colon = system: COLO 205 colon
MOLT-4 leukemia = system: MOLT-4 leukemia
CAKI-1 renal = system: CAKI-1 renal
UO-31 renal = system: UO-31 renal
TK-10 renal = system: TK-10 renal
BT-549 breast = system: BT-549 breast
RXF 393 renal = system: RXF 393 renal
NCI-H226 lung = system: NCI-H226 lung
SF-268 CNS = system: SF-268 CNS
CCRF-CEM leukemia = system: CCRF-CEM leukemia
UACC-257 melanoma = system: UACC-257 melanoma
K-562 leukemia = system: K-562 leukemia
MCF7 breast = system: MCF7 breast
KM12 colon = system: KM12 colon
IGROV1 ovarian = system: IGROV1 ovarian
SK-MEL-2 melanoma = system: SK-MEL-2 melanoma
OVCAR-4 ovarian = system: OVCAR-4 ovarian
MDA-MB-231 breast = system: MDA-MB-231 breast
MDA-MB-435 = system: MDA-MB-435
A549 NSCLC = system: A549 NSCLC
RPMI-8226 leukemia = system: RPMI-8226 leukemia
OVCAR-5 ovarian = system: OVCAR-5 ovarian
MALME-3M melanoma = system: MALME-3M melanoma
ACHN renal = system: ACHN renal
LOX IMVI melanoma = system: LOX IMVI melanoma
NCI-H522 lung = system: NCI-H522 lung
SK-OV-3 ovarian = system: SK-OV-3 ovarian
SR leukemia = system: SR leukemia
HCC-2998 colon = system: HCC-2998 colon
HOP-92 NSCLC = system: HOP-92 NSCLC
SNB-75 CNS = system: SNB-75 CNS
SF-539 CNS = system: SF-539 CNS

Cc1ccc2c(=O)c(C(=O)N(CCO)CCO)c[nH]c2n1
TGI (SW-620 colon): > 100 µM
TGI (NCI-H23 lung): > 100 µM
TGI (SK-MEL-28 melanoma): > 100 µM
TGI (786-0 renal): > 100 µM
TGI (NCI-H460 lung): > 100 µM
TGI (SK-MEL-5 melanoma): > 100 µM
TGI (DU-145 prostate): > 100 µM
TGI (HCT-116 colon): > 100 µM
TGI (PC-3 prostate): > 100 µM
TGI (HT29 colon): > 100 µM
TGI (M14 melanoma): > 100 µM
TGI (OVCAR-8 ovarian): > 100 µM
TGI (HOP-62 NSCLC): > 100 µM
TGI (SF-295 CNS): > 100 µM
TGI (EKVX NSCLC): > 100 µM
TGI (NCI/ADR-RES ovarian): > 100 µM
TGI (T-47D breast): > 100 µM
TGI (HCT-15 colon): > 100 µM
TGI (UACC-62 melanoma): > 100 µM
TGI (OVCAR-3 ovarian): > 100 µM
TGI (U251 CNS): > 100 µM
TGI (HL-60(TB) leukemia): > 100 µM
TGI (MDA-N): > 100 µM
TGI (HS 578T breast): > 100 µM
TGI (SNB-19 CNS): > 100 µM
TGI (SN12C renal): > 100 µM
TGI (A498 renal): > 100 µM
TGI (COLO 205 colon): > 100 µM
TGI (MOLT-4 leukemia): > 100 µM
TGI (CAKI-1 renal): > 100 µM
TGI (UO-31 renal): > 100 µM
TGI (TK-10 renal): > 100 µM
TGI (BT-549 breast): > 100 µM
TGI (RXF 393 renal): > 100 µM
TGI (NCI-H226 lung): > 100 µM
TGI (SF-268 CNS): > 100 µM
TGI (CCRF-CEM leukemia): > 100 µM
TGI (UACC-257 melanoma): > 100 µM
TGI (K-562 leukemia): > 100 µM
TGI (MCF7 breast): > 100 µM
TGI (KM12 colon): > 100 µM
TGI (IGROV1 ovarian): > 100 µM
TGI (SK-MEL-2 melanoma): > 100 µM
TGI (OVCAR-4 ovarian): > 100 µM
TGI (MDA-MB-231 breast): > 100 µM
TGI (MDA-MB-435): > 100 µM
TGI (A549 NSCLC): > 100 µM
TGI (RPMI-8226 leukemia): > 100 µM
TGI (OVCAR-5 ovarian): > 100 µM
TGI (MALME-3M melanoma): > 100 µM
TGI (ACHN renal): > 100 µM
TGI (LOX IMVI melanoma): > 100 µM
TGI (NCI-H522 lung): > 100 µM

COc1ccccc1N1C(=O)/C(=C\c2cccc(Oc3ccccc3)c2)S(=O)(=O)C1c1ccccc1 (centres undefined)
TGI (SW-620 colon): > 100 µM
TGI (NCI-H23 lung): > 100 µM
TGI (SK-MEL-28 melanoma): > 100 µM
TGI (786-0 renal): > 100 µM
TGI (NCI-H460 lung): > 100 µM
TGI (SK-MEL-5 melanoma): 53.7 µM
TGI (DU-145 prostate): > 100 µM
TGI (SK-OV-3 ovarian): > 100 µM
TGI (HCT-116 colon): > 100 µM
TGI (PC-3 prostate): > 100 µM
TGI (SR leukemia): 56.2 µM
TGI (M14 melanoma): > 100 µM
TGI (HCC-2998 colon): > 100 µM
TGI (HOP-62 NSCLC): > 100 µM
TGI (SF-295 CNS): > 100 µM
TGI (EKVX NSCLC): > 100 µM
TGI (NCI/ADR-RES ovarian): 67.6 µM
TGI (T-47D breast): > 100 µM
TGI (HCT-15 colon): > 100 µM
TGI (UACC-62 melanoma): > 100 µM
TGI (OVCAR-3 ovarian): > 100 µM
TGI (U251 CNS): > 100 µM
TGI (MDA-N): > 100 µM
TGI (SNB-19 CNS): > 100 µM
TGI (SN12C renal): > 100 µM
TGI (A498 renal): > 100 µM
TGI (COLO 205 colon): 88.3 µM
TGI (MOLT-4 leukemia): 32.8 µM
TGI (CAKI-1 renal): > 100 µM
TGI (UO-31 renal): > 100 µM
TGI (TK-10 renal): > 100 µM
TGI (BT-549 breast): 83.6 µM
TGI (RXF 393 renal): > 100 µM
TGI (NCI-H226 lung): > 100 µM
TGI (CCRF-CEM leukemia): > 100 µM
TGI (UACC-257 melanoma): > 100 µM
TGI (K-562 leukemia): > 100 µM
TGI (MCF7 breast): > 100 µM
TGI (KM12 colon): > 100 µM
TGI (SK-MEL-2 melanoma): 70.5 µM
TGI (HOP-92 NSCLC): > 100 µM
TGI (OVCAR-4 ovarian): > 100 µM
TGI (MDA-MB-231 breast): > 100 µM
TGI (MDA-MB-435): > 100 µM
TGI (A549 NSCLC): > 100 µM
TGI (OVCAR-5 ovarian): > 100 µM
TGI (MALME-3M melanoma): > 100 µM
TGI (ACHN renal): > 100 µM
TGI (LOX IMVI melanoma): > 100 µM
TGI (NCI-H522 lung): > 100 µM

COC(=O)[C@@H]1O[C@]12[C@@H](CO[Si](C)(C)C(C)(C)C)O[C@@H](n1cc(C)c(=O)[nH]c1=O)[C@@H]2O[Si](C)(C)C(C)(C)C
TGI (SW-620 colon): 27.9 µM
TGI (NCI-H23 lung): 40.5 µM
TGI (SK-MEL-28 melanoma): 38.5 µM
TGI (NCI-H460 lung): > 100 µM
TGI (SK-MEL-5 melanoma): 38.5 µM
TGI (DU-145 prostate): 39 µM
TGI (SK-OV-3 ovarian): > 100 µM
TGI (HCT-116 colon): 29.9 µM
TGI (PC-3 prostate): 55.7 µM
TGI (HT29 colon): 18.1 µM
TGI (M14 melanoma): 35.9 µM
TGI (OVCAR-8 ovarian): 53.4 µM
TGI (HOP-62 NSCLC): 70.7 µM
TGI (SF-295 CNS): 49.7 µM
TGI (EKVX NSCLC): 53.6 µM
TGI (NCI/ADR-RES ovarian): 33.8 µM
TGI (T-47D breast): 27.3 µM
TGI (HCT-15 colon): 17.3 µM
TGI (SNB-75 CNS): > 100 µM
TGI (UACC-62 melanoma): 34.8 µM
TGI (OVCAR-3 ovarian): 31.1 µM
TGI (U251 CNS): 24.7 µM
TGI (HL-60(TB) leukemia): 5.47 µM
TGI (MDA-N): 27.6 µM
TGI (HS 578T breast): 42.5 µM
TGI (SNB-19 CNS): 26 µM
TGI (SN12C renal): 27.9 µM
TGI (COLO 205 colon): > 100 µM
TGI (MOLT-4 leukemia): 7.42 µM
TGI (CAKI-1 renal): 70 µM
TGI (TK-10 renal): > 100 µM
TGI (BT-549 breast): 32.6 µM
TGI (RXF 393 renal): 22.7 µM
TGI (NCI-H226 lung): 45.5 µM
TGI (SF-268 CNS): 38 µM
TGI (CCRF-CEM leukemia): 4.79 µM
TGI (UACC-257 melanoma): 75.2 µM
TGI (K-562 leukemia): 40.2 µM
TGI (KM12 colon): > 100 µM
TGI (IGROV1 ovarian): 21.6 µM
TGI (SK-MEL-2 melanoma): 30.1 µM
TGI (OVCAR-4 ovarian): > 100 µM
TGI (MDA-MB-231 breast): 54.8 µM
TGI (MDA-MB-435): 59.2 µM
TGI (A549 NSCLC): 64 µM
TGI (SF-539 CNS): 75.3 µM
TGI (OVCAR-5 ovarian): 36.6 µM
TGI (MALME-3M melanoma): 43.4 µM
TGI (ACHN renal): 33 µM
TGI (LOX IMVI melanoma): 10.2 µM
TGI (NCI-H522 lung): 30.1 µM

CC1(C)Oc2ccc3c(=O)c4ccccc4oc3c2C1C(=O)O (centres undefined)
TGI (NCI-H23 lung): > 100 µM
TGI (786-0 renal): > 100 µM
TGI (SK-MEL-5 melanoma): > 100 µM
TGI (DU-145 prostate): > 100 µM
TGI (SK-OV-3 ovarian): > 100 µM
TGI (HCT-116 colon): > 100 µM
TGI (PC-3 prostate): > 100 µM
TGI (HT29 colon): > 100 µM
TGI (M14 melanoma): > 100 µM
TGI (HCC-2998 colon): > 100 µM
TGI (OVCAR-8 ovarian): > 100 µM
TGI (HOP-62 NSCLC): > 100 µM
TGI (SF-295 CNS): > 100 µM
TGI (EKVX NSCLC): > 100 µM
TGI (NCI/ADR-RES ovarian): > 100 µM
TGI (T-47D breast): > 100 µM
TGI (UACC-62 melanoma): > 100 µM
TGI (OVCAR-3 ovarian): > 100 µM
TGI (U251 CNS): > 100 µM
TGI (MDA-N): > 100 µM
TGI (HS 578T breast): > 100 µM
TGI (SN12C renal): > 100 µM
TGI (A498 renal): > 100 µM
TGI (COLO 205 colon): > 100 µM
TGI (MOLT-4 leukemia): > 100 µM
TGI (CAKI-1 renal): > 100 µM
TGI (TK-10 renal): > 100 µM
TGI (BT-549 breast): > 100 µM
TGI (RXF 393 renal): > 100 µM
TGI (NCI-H226 lung): > 100 µM
TGI (SF-268 CNS): > 100 µM
TGI (CCRF-CEM leukemia): > 100 µM
TGI (UACC-257 melanoma): > 100 µM
TGI (K-562 leukemia): > 100 µM
TGI (MCF7 breast): > 100 µM
TGI (IGROV1 ovarian): > 100 µM
TGI (SK-MEL-2 melanoma): > 100 µM
TGI (OVCAR-4 ovarian): > 100 µM
TGI (MDA-MB-231 breast): > 100 µM
TGI (MDA-MB-435): > 100 µM
TGI (A549 NSCLC): > 100 µM
TGI (SF-539 CNS): > 100 µM
TGI (OVCAR-5 ovarian): > 100 µM
TGI (MALME-3M melanoma): > 100 µM
TGI (NCI-H522 lung): > 100 µM
